Results: paper PMC3735122 (mBio, 2013)

How the values were obtained:
Assay type in all cases: cell-based, influenza virus H7N9
[1] = test system: A/Shanghai/1/2013-NA^R292 (WT no. 6) virus; assay: organism not typed
A/Shanghai/2/2013 virus = assay: organism not typed
[2] = test system: A/Shanghai/1/13 virus (mixed R/K at NA residue 292)
[3] = MDCK, read-out: 90% effective concentration [EC90]

Structure (SMILES) | concentration at which replication was completely inhibited [1] [µM] | sensitivity in MDCK cells compared to the A/Shanghai/2/2013 virus [1] | concentration at which replication was completely inhibited (A/Shanghai/2/2013 virus) [µM] | EC90 [1, 3] [µM] | sensitivity in MDCK cells relative to the A/Shanghai/2/2013 virus [2] | EC90 (A/Shanghai/2/2013 virus; [3]) [µM]
CCC(CC)O[C@@H]1C=C(C(=O)O)C[C@H](N)[C@H]1NC(C)=O [oseltamivir carboxylate] | 250 | reduced sensitivity | 31.25 | – | – | –
NC(=O)c1nc(F)c[nH]c1=O [favipiravir] | – | – | – | 10.4 | comparable dose-response curves | 1.43
CC(=O)N[C@H]1[C@H]([C@H](O)[C@H](O)CO)OC(C(=O)O)=C[C@@H]1N=C(N)N [zanamivir] | > 125 | reduced sensitivity | 125 | – | – | –
